According to PubChem BioAssay AID464 (The Scripps Research Institute Molecular Screening Center, 2006):
Active and inactive are the calls of the source.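 How the source made its calls: active means Compounds that kill half the cells at a concentration of 5 micromolar or below, from the fitted or estimated CC50; inactive means CC50 above 5 micromolar.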

System: Jurkat E6.1 viability, ATP luminescence, 48 h
Experiment: Jurkat E6.1 cell cytotoxicity, CC50 determination, dose response, cytotoxicity control, ATP luminescence, 48 h, 60K MLSMR (AID 464)

Row | SMILES | CC50
1 | COCCOC(=O)c1[nH]c2c(c1C)C(=O)CC(c1cc(OC)ccc1OC)C2 (stereo not given) | 4.2 µM
2 | Cc1nc(NCc2ccco2)c2c3c(sc2n1)CCC3 | 15.6 µM (inactive)
3 | CC(=O)Oc1ccc(Oc2ccc(-c3noc(C)n3)cc2)cc1 | > 40 µM (inactive)
4 | CCc1nnc(NC(=O)c2ccc(S(=O)(=O)N(CC)Cc3ccccc3)cc2)o1 | 26 µM (inactive)
5 | Cn1c(SC2=CS(=O)(=O)c3ccccc32)nc2ccccc21 | 2.66 µM
6 | Nc1c(C(=O)NCc2ccccc2)nnn1Cc1cccc(Cl)c1 | 4.49 µM
7 | Cc1ccc(C)c(N2CCN(C(=O)c3ccc(CS(=O)(=O)c4ccccc4C)o3)CC2)c1 | 14.2 µM (inactive)
8 | CC(C)Oc1ccccc1C1CC(=O)Nc2cc3c(cc21)OCCO3 (stereo not given) | 0.576 µM
9 | Cc1ccnc(NC(=O)CCCOc2cc(=O)n(C)c3ccccc23)c1 | 5.58 µM (inactive)
10 | COc1ccc(C)cc1Nc1cc(C)nc2nc(C)nn12 | 7.08 µM (inactive)
11 | CCc1nnc(NC(=O)CSc2nnc(-c3ccccc3O)n2-c2ccc(C)cc2C)s1 | 4.43 µM
12 | COc1cccc2sc(Nc3nnc(-c4cccs4)o3)nc12 | 10.6 µM (inactive)
13 | Cc1nnc(Sc2nc(Sc3nnc(C)s3)nc(N3CCN(C)CC3)n2)s1 | 1.34 µM
14 | Cc1cccc(N2CCN(C(=O)c3ccc(CS(=O)(=O)c4ccccc4C)o3)CC2C)c1 (stereo not given) | 0.785 µM
15 | O=C(c1ccccc1-c1ccccc1)N1CCN(c2ccccn2)CC1 | 1.55 µM
16 | CCCS(=O)(=O)c1nnnn1-c1cccc(OC)c1 | 1.73 µM
17 | CCN1CCN(c2ncc3c(n2)CC(c2cc(OC)c(OC)c(OC)c2)CC3=O)CC1 (stereo not given) | 2.26 µM
18 | COC(=O)c1ccccc1NC(=O)Cn1c(-c2nonc2N)nc2ccccc21 | 0.245 µM
19 | Cc1oc(-c2ccccc2Cl)nc1CSCC(=O)N1CCCC1 | > 40 µM (inactive)
20 | Cc1c(C(=O)N2CCCCC2)oc2ccc(S(=O)(=O)N3CC(C)CC(C)C3)cc12 (stereo not given) | 15.9 µM (inactive)
21 | Cc1nc(C)c(C(=O)Nc2ccc(Oc3ccccc3)cc2)o1 | 19.4 µM (inactive)
22 | CNc1nc2c(c(=O)n(C)c(=O)n2C)n1Cc1ccccc1 | 7.54 µM (inactive)

Row | SMILES | CC50
23 | CS(=O)c1nc(-c2ccc(Br)cc2)cc(-c2ccccc2)c1C#N (stereo not given) | 0.631 µM
24 | O=S1(=O)C=C(Sc2nc3ccccc3s2)c2ccccc21 | 0.647 µM
25 | Cc1noc(C)c1CSc1nc2ccccc2c(=O)n1-c1ccccc1 | 2.28 µM
26 | N=c1c2c(n(Cc3ccc(Cl)cc3)c3c1CCC3)CCC2 | 2.06 µM
27 | CC1=C(C(=O)OCc2ccc3c(c2)OCO3)C(c2ccc(Cl)cc2)NC(=O)N1 (stereo not given) | 12.6 µM (inactive)
28 | O=C(CCNc1ccc(F)c(Cl)c1)c1ccco1 | > 13 µM (inactive)
29 | O=C(NCc1ccccc1)c1noc2c1CCCC2 | 8.77 µM (inactive)
30 | Cc1nc2ccccc2n1CC(=O)NCc1ccccc1 | 5.34 µM (inactive)
31 | CC1CN(S(=O)(=O)c2ccc(NC(=O)c3cc(-c4ccccc4O)n[nH]3)cc2)CC(C)O1 (stereo not given) | > 13 µM (inactive)
32 | COc1cc2c(cc1OC)CN(C(=O)c1cc3ccccc3oc1=O)CC2 | 5.04 µM (inactive)
33 | Oc1c(CN2CCCCC2)cc(COCc2ccccc2)c2cccnc12 | 3.31 µM
34 | Cc1nn(Cc2ccccc2Cl)c(C)c1C(=O)Nc1nnc(C2CC2)s1 | > 40 µM (inactive)
35 | COc1ccc(C2=NOC(C(=O)NCc3ccccc3)C2)cc1 (stereo not given) | 3.26 µM
36 | COc1cc(C2=NOC(C(=O)NCc3ccc(F)cc3)C2)cc(OC)c1OC (stereo not given) | 0.347 µM
37 | Cc1cccc(-n2c(O)c(C=Nc3ccccc3N)c(=O)[nH]c2=O)c1 | > 13 µM (inactive)
38 | O=S(=O)(CCSc1ccccn1)c1nc2ccccc2s1 | 11.8 µM (inactive)
39 | CCn1ncc(C2=NOC(C(=O)NCc3ccc(OC)cc3)C2)c1C (stereo not given) | 11.8 µM (inactive)
40 | Oc1c(C(Nc2nc3ccccc3s2)c2ccco2)ccc2cccnc12 (stereo not given) | 7.79 µM (inactive)
41 | Cc1nn(Cc2c(Cl)cccc2Cl)c(C)c1NC(=O)c1cc(C(C)C)on1 | > 40 µM (inactive)
42 | COc1ccccc1-c1nnc2sc(-c3ccc(N(C)C)cc3)nn12 | 0.0343 µM
43 | COc1ccc(C(=O)N2CCN(c3cccc(Cl)c3)CC2)c(OC)c1 | 8.58 µM (inactive)
44 | CCOC(=O)C(C)Oc1cccc2c(=O)n(CC(=O)NCc3ccco3)ccc12 (stereo not given) | 1.1 µM

Row | SMILES | CC50
45 | CN(Cc1ccccc1)S(=O)(=O)c1ccc(C(=O)Nc2nnc(C3CC3)o2)cc1 | 26 µM (inactive)
46 | COc1cccc(/C=N/n2c(SC)nnc2-c2ccccc2)c1O | 10 µM (inactive)
47 | CCOC(=O)CSC1=C(C#N)C(c2sccc2C)CC(=O)N1 (stereo not given) | 1.91 µM
48 | O=c1cc(-c2ccccc2)[nH]c2nc3ccccc3n12 | 9.38 µM (inactive)
49 | CCOC(=O)c1[nH]c(C)c(C(=O)N2CCc3ccccc32)c1C | 0.284 µM
50 | O=C(Nc1nc(-c2ccccn2)cs1)c1ccc(Cl)s1 | 2.12 µM
51 | CC(C)Oc1ccccc1C1CC(=O)Nc2cc3c(cc21)OCO3 (stereo not given) | 0.812 µM
52 | Cc1onc(-c2ccccc2)c1C(=O)Nc1cc(C(F)(F)F)ccc1N1CCOCC1 | 2.15 µM
53 | CCOC(=O)c1ccc(NC(=O)c2ccc(CN3CCOCC3)cc2)cc1 | 5.13 µM (inactive)
54 | Cc1cc2nnc(SCC(=O)NCc3ccco3)n2c2ccccc12 | 1.9 µM
55 | Cc1cc(C)nc(NC(=O)Nc2ccccc2C(F)(F)F)n1 | > 4.4 µM (inactive)
56 | COc1ccc(N=Cc2c(O)[nH]c3ccccc23)cc1OC | 11.3 µM (inactive)
57 | CCc1cc2c(=O)n(Cc3ccco3)c(SCc3c(C)noc3C)nc2s1 | 4.4 µM
58 | N#Cc1c(NCc2ccccc2)ccnc1NCc1cccnc1 | 4.17 µM
59 | NS(=O)(=O)c1ccc(CCNc2ncnc3sccc23)cc1 | 3.37 µM
60 | COc1ccc(CCNc2ncnc3c2oc2ccccc23)cc1OC | 2.72 µM
61 | CCc1nnc(NC(=O)c2ccc(S(=O)(=O)N(CC(C)C)CC(C)C)cc2)o1 | 29.8 µM (inactive)
62 | O=C(Nc1nc2ccc(S(=O)(=O)N3CCCC3)cc2s1)C1CCCCC1 | 3.73 µM
63 | CCOC(=O)N1CCN(c2c(F)cc3[nH]c(=S)[nH]c3c2Br)CC1 | > 4.4 µM (inactive)
64 | C/C=C/COC(=O)c1[nH]c2c(c1C)C(=O)CC(c1ccco1)C2 (stereo not given) | 0.196 µM
65 | O=C(NCc1cccs1)c1noc2c1CCCC2 | 7.48 µM (inactive)
66 | Cc1ccc(C2NC(=O)c3ccccc3N2)s1 (stereo not given) | 4.16 µM

Row | SMILES | CC50
67 | Cn1cc(/C=N/n2cnc3scc(-c4ccc(Cl)cc4)c3c2=O)c2ccccc21 | 0.373 µM
68 | COC(=O)C1=C(C)N(c2ccc(Cl)c(Cl)c2)C(=O)C1 | 5.37 µM (inactive)
69 | O=C(Oc1ccc2c(c1)OCO2)c1cc2c(s1)CCC2 | > 40 µM (inactive)
70 | CCc1ccc(CNc2ccc(O)cc2)cc1 | > 40 µM (inactive)
71 | CCOC(=O)C1CCN(Cc2ccc(O)c3ncccc23)CC1 | 9.85 µM (inactive)
72 | CC(C)Oc1cc(O)c2c(=O)c(-c3ccc(O)cc3)coc2c1 | 11 µM (inactive)
73 | Clc1ccc(-n2nnnc2Sc2ncnc3sccc23)cc1 | > 13 µM (inactive)
74 | Cc1nn(-c2ccccc2)c(C)c1C(=O)Nc1nnc(-c2ccco2)o1 | > 40 µM (inactive)
75 | COc1cc(C(=O)N2CCN(c3cc(Cl)ccc3Cl)CC2)cc(OC)c1OC | 0.134 µM
76 | Oc1ccc(-c2nc(-c3ccc(O)c(O)c3)cs2)cc1 | 0.167 µM
77 | O=C(Nc1ccc2c(c1)nc1n2CCCCC1)c1cc(S(=O)(=O)N2CCOCC2)ccc1Cl | 21.1 µM (inactive)
78 | Cc1cc2c(N=O)c(NO)ccc2[nH]1 | 1.97 µM
79 | CN(C)c1ccccc1C(=O)c1ccccc1N(C)C | 0.743 µM
80 | COc1cccc(OC)c1C1=NCC(=O)Nc2c1oc1ccc(Br)cc21 | 0.693 µM
81 | COc1ccc(CCNc2nnc(Sc3nnnn3-c3ccccc3)s2)cc1OC | 0.875 µM
82 | Cc1cc(C)nc(SCC(=O)Nc2ccc(N3CCOCC3)c(Cl)c2)n1 | 5.6 µM (inactive)
83 | N#Cc1c(NC(=O)CSc2nc(N)cc(=O)[nH]2)sc2c1CCCCCC2 | 6.25 µM (inactive)
84 | Cn1cc(/C(Cc2ccccc2)=N\O)c2ccccc21 | 12.9 µM (inactive)
85 | COc1ccc(C(=O)c2ccc(N(C)C)cc2)c(OC)c1 | 1.5 µM
86 | CCCn1nc(C(=O)N2CC(=O)Nc3ccccc32)c2ccccc2c1=O | 2.81 µM
87 | CN(C)S(=O)(=O)c1ccc(C(=O)Nc2nc(-c3cccs3)cs2)cc1 | 21.1 µM (inactive)
88 | CCCCn1c(CN(C)Cc2ccccc2)nc2c1c(=O)n(C)c(=O)n2C | 14.8 µM (inactive)

Row | SMILES | CC50
89 | CCN(CC)S(=O)(=O)c1cc(C(=O)Nc2ccncc2)ccc1Cl | 8.55 µM (inactive)
90 | Cc1c(C(=O)OCc2ccccc2)[nH]c2c1C(=O)CC(c1ccco1)C2 (stereo not given) | 0.499 µM
91 | Fc1ccc(Br)cc1C1C=C(c2cccnc2)Nc2ncnn21 (stereo not given) | 8.76 µM (inactive)
92 | CCCCOc1ccc(C(=O)Nc2ccncc2)cc1 | 1.79 µM
93 | COC(=O)Nc1ccc(S(=O)(=O)N2CCCc3ccccc32)cc1 | 1.06 µM
94 | CC1=CC(C)(C)Nc2ccc(OC(=O)c3ccco3)cc21 | 4.78 µM
95 | CC(C)C1N=C2c3ccccc3N=C(SCC(=O)c3ccc(O)c(O)c3)N2C1=O (stereo not given) | 10.2 µM (inactive)
96 | COC(=O)c1[nH]c2c(c1C)C(=O)CC(c1cc(OC)ccc1OC)C2 (stereo not given) | 3.89 µM
97 | CSc1nnc2c3ccccc3n(CCc3ccccc3)c2n1 | 16.9 µM (inactive)
98 | CCn1nc(-c2cccs2)nc2c(=O)n(C)c(=O)nc1-2 | > 40 µM (inactive)
99 | Cc1ccccc1OCC(=O)Nc1ccc(N2CCN(C(=O)C(C)C)CC2)c(Cl)c1 | > 40 µM (inactive)
100 | O=C(c1cccc(F)c1)N1CCN(c2cccc(Cl)c2)CC1 | 4.55 µM
101 | Cc1ccc(Cl)cc1N1CCN(C(=O)C2CCN(c3nnc(-n4cccc4)s3)CC2)CC1 | > 40 µM (inactive)
102 | O=C(Nc1nnc(-c2cccs2)o1)c1cccc(F)c1 | 21.7 µM (inactive)
103 | Cc1ccc(C)c(S(=O)(=O)Nc2ccc3scnc3c2)c1 | 3.08 µM
104 | c1ccc(-c2cccc(-c3ccccn3)n2)nc1 | 1.08 µM
105 | CCCCCOC(=O)c1[nH]c2c(c1C)C(=O)CC(c1ccco1)C2 (stereo not given) | 0.084 µM
106 | COc1cccc(CNC(=O)c2cc3oc4ccccc4c3n2C)c1OC | > 40 µM (inactive)
107 | Cc1cc(C(=O)N2CCN(c3cccc(Cl)c3)CC2)c(C)o1 | 4.95 µM
108 | COc1ccccc1-n1cnc(N)c1C(=O)c1ccccc1 | > 4.4 µM (inactive)
109 | O=C(O)C1CC=CCC1C(=O)Nc1ccc(S(=O)(=O)N2CCCc3ccccc32)cc1 (stereo not given) | > 40 µM (inactive)
110 | O=C(Nc1ccc(N2CCCC2)cc1)c1cccc(F)c1 | 8.17 µM (inactive)
